“And” between values parts separate entries of the source, which are not always exact repeats. Equal values may be shown once. Toxic doses and inconclusive results are not listed. How the source made its calls: active means survival T/C of 150% or more; inactive means T/C below 125% in these data.
System: P388 leukemia ip, CD2F1 mice, survival T/C
Assay: NCI In Vivo Anticancer Drug Screen. Data for tumor model P388 Leukemia (intraperitoneal) in CD2F1 (CDF1) mice
Conditions: endpoint: median survival time, higher = longer survival
In short: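 Mice carrying the transplanted tumor received test compound or vehicle. Survival was recorded in each group, and the value is the treated-group measurement divided by that of the vehicle-treated control group.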

[1] = dose: 60.0 mg/kg/injection, schedule: Q01DX005 (ip), vehicle: saline
[2] = dose: 50.0 mg/kg/injection, schedule: Q01DX005 (ip), vehicle: Klucel (hydroxypropylcellulose) (HPC)
[3] = dose: 100.0 mg/kg/injection, schedule: Q01DX005 (ip), vehicle: Klucel (hydroxypropylcellulose) (HPC)
[4] = dose: 50.0 mg/kg/injection, schedule: Q01DX009 (ip), vehicle: saline
[5] = dose: 12.5 mg/kg/injection, schedule: Q01DX009 (ip), vehicle: saline with Tween-80
[6] = dose: 25.0 mg/kg/injection, schedule: Q01DX009 (ip), vehicle: saline with Tween-80
[7] = dose: 25.0 mg/kg/injection, schedule: Q01DX009 (ip), vehicle: Klucel (hydroxypropylcellulose) (HPC)
[8] = dose: 50.0 mg/kg/injection, schedule: Q01DX009 (ip), vehicle: Klucel (hydroxypropylcellulose) (HPC)
[9] = dose: 100.0 mg/kg/injection, schedule: Q01DX009 (ip), vehicle: Klucel (hydroxypropylcellulose) (HPC)
[10] = dose: 200.0 mg/kg/injection, schedule: Q01DX009 (ip), vehicle: Klucel (hydroxypropylcellulose) (HPC)

Measured: T/C

COC(=O)C1CCC2C(C1)OC1(CC(OC(=O)/C=C\c3ccccc3)C(C)CO1)C2(O)CO (centres undefined)
inactive: dose: 5.0 mg/kg/injection, schedule: Q01DX009 (ip), vehicle: saline + alcohol 98 % of control | dose: 10.0 mg/kg/injection, schedule: Q01DX009 (ip), vehicle: saline + alcohol 103 % of control | dose: 20.0 mg/kg/injection, schedule: Q01DX009 (ip), vehicle: saline + alcohol 105 % of control | dose: 40.0 mg/kg/injection, schedule: Q01DX009 (ip), vehicle: saline + alcohol 105 % of control

CN1CC=C(c2ccccc2)C(O)C1 (centres undefined)
inactive: dose: 12.5 mg/kg/injection, schedule: Q04DX002 (ip), vehicle: saline 116 % of control | dose: 15.0 mg/kg/injection, schedule: Q01DX005 (ip), vehicle: saline 100 % of control | dose: 25.0 mg/kg/injection, schedule: Q04DX002 (ip), vehicle: saline 101 % of control | dose: 30.0 mg/kg/injection, schedule: Q01DX005 (ip), vehicle: saline 99 % of control | dose: 50.0 mg/kg/injection, schedule: Q04DX002 (ip), vehicle: saline 101 % of control | [1] 117 % of control and 97 % of control

O=CCC(O)C(O)C(O)CO (centres undefined)
inactive: dose: 150.0 mg/kg/injection, schedule: Q01DX009 (ip), vehicle: saline 107 % of control | dose: 300.0 mg/kg/injection, schedule: Q01DX009 (ip), vehicle: saline 100 % of control and 104 % of control and 121 % of control | dose: 600.0 mg/kg/injection, schedule: Q01DX009 (ip), vehicle: saline 107 % of control and 112 % of control and 121 % of control | dose: 1200.0 mg/kg/injection, schedule: Q01DX009 (ip), vehicle: saline 103 % of control | dose: 2400.0 mg/kg/injection, schedule: Q01DX009 (ip), vehicle: saline 110 % of control and 91 % of control

COc1ccc(-c2nnc(-c3ccc(Cl)cc3)c(=O)[nH]2)cc1
inactive: dose: 6.25 mg/kg/injection, schedule: Q01DX005 (ip), vehicle: saline with Tween-80 91 % of control | dose: 12.5 mg/kg/injection, schedule: Q01DX005 (ip), vehicle: saline with Tween-80 90 % of control

CN(C)C(=O)c1cccc(COc2ccc([N+](=O)[O-])cc2Cl)c1
inactive: dose: 50.0 mg/kg/injection, schedule: Q01DX009 (ip), vehicle: saline with Tween-80 110 % of control | dose: 100.0 mg/kg/injection, schedule: Q01DX009 (ip), vehicle: saline with Tween-80 110 % of control

COC(=O)C1=C/C=C\CN/C=C\1C(=O)OC
inactive: dose: 100.0 mg/kg/injection, schedule: Q04DX003 (ip), vehicle: alcohol 97 % of control | dose: 200.0 mg/kg/injection, schedule: Q04DX003 (ip), vehicle: alcohol 97 % of control | dose: 400.0 mg/kg/injection, schedule: Q04DX003 (ip), vehicle: alcohol 106 % of control

COc1ccc2c3c([nH]c2c1)C(C)N(S(=O)(=O)c1ccccc1)CC3 (centres undefined)
inactive: dose: 12.5 mg/kg/injection, schedule: Q01DX005 (ip), vehicle: Klucel (hydroxypropylcellulose) (HPC) 98 % of control | dose: 25.0 mg/kg/injection, schedule: Q01DX005 (ip), vehicle: Klucel (hydroxypropylcellulose) (HPC) 92 % of control | [2] 98 % of control | [3] 98 % of control | dose: 200.0 mg/kg/injection, schedule: Q01DX005 (ip), vehicle: Klucel (hydroxypropylcellulose) (HPC) 93 % of control

CC12CCC3c4ccc(O)cc4CCC3C1CCC2(O)CN1CCCCC1 (centres undefined)
inactive: [2] 96 % of control | [3] 91 % of control

CNC(=O)OCc1nc(-c2ccccc2)sc1COC(=O)NC
inactive: dose: 12.5 mg/kg/injection, schedule: Q01DX005 (ip), vehicle: distilled water + Tween-80 94 % of control | dose: 25.0 mg/kg/injection, schedule: Q01DX005 (ip), vehicle: distilled water + Tween-80 93 % of control

CC(C)(CCl)C(=O)O
inactive: [4] 95 % of control

COc1ccc(Br)cc1/C=C/[N+](=O)[O-]
inactive: [5] 113 % of control | [6] 122 % of control

C=C=COC
inactive: [1] 93 % of control | dose: 120.0 mg/kg/injection, schedule: Q01DX005 (ip), vehicle: saline 95 % of control | dose: 240.0 mg/kg/injection, schedule: Q01DX005 (ip), vehicle: saline 95 % of control

CN(C)C(=S)S(C)(=O)=O
inactive: dose: 12.5 mg/kg/injection, schedule: Q01DX009 (ip), vehicle: saline 107 % of control | dose: 25.0 mg/kg/injection, schedule: Q01DX009 (ip), vehicle: saline 109 % of control | [4] 103 % of control and 107 % of control

CCOc1ccc(-n2c(=O)c(N=Nc3ccccc3C)c(O)n(-c3ccc(Br)cc3)c2=S)cc1
inactive: dose: 100.0 mg/kg/injection, schedule: Q01DX001 (ip), vehicle: saline with Tween-80 98 % of control | dose: 200.0 mg/kg/injection, schedule: Q01DX001 (ip), vehicle: saline with Tween-80 92 % of control | dose: 400.0 mg/kg/injection, schedule: Q01DX001 (ip), vehicle: saline with Tween-80 105 % of control

O=C1CC(=O)N2C=CC=CC2N1 (centres undefined)
inactive: [7] 106 % of control | [8] 106 % of control | [9] 97 % of control | [10] 97 % of control

CO[C@@H]1[C@H](O)CC[C@]2(CO2)[C@H]1[C@@]1(C)O[C@@H]1CC=C(C)C
inactive: dose: 3.13 mg/kg/injection, schedule: Q01DX009 (ip), vehicle: saline with Tween-80 99 % of control and 120 % of control | dose: 6.25 mg/kg/injection, schedule: Q01DX009 (ip), vehicle: saline with Tween-80 99 % of control and 116 % of control | [5] 99 % of control and 106 % of control | [6] 108 % of control and 120 % of control | dose: 33.3 mg/kg/injection, schedule: Q01DX009 (ip), vehicle: saline with Tween-80 99 % of control

CC[P+](c1ccccc1)(c1ccccc1)c1ccccc1
inactive: dose: 0.62 mg/kg/injection, schedule: Q01DX009 (ip), vehicle: saline with Tween-80 111 % of control | dose: 1.25 mg/kg/injection, schedule: Q01DX009 (ip), vehicle: saline with Tween-80 104 % of control | dose: 2.5 mg/kg/injection, schedule: Q01DX009 (ip), vehicle: saline with Tween-80 112 % of control | dose: 5.0 mg/kg/injection, schedule: Q01DX009 (ip), vehicle: saline with Tween-80 119 % of control

COc1c2ccccc2c(C)c2ccc3ccccc3c12
inactive: dose: 100.0 mg/kg/injection, schedule: Q01DX001 (ip), vehicle: Klucel (hydroxypropylcellulose) (HPC) 107 % of control | dose: 200.0 mg/kg/injection, schedule: Q01DX001 (ip), vehicle: Klucel (hydroxypropylcellulose) (HPC) 111 % of control

CC1[C@@H]2CC=C3[C@H]4CCC5Cc6nc7c(nc6C[C@@]5(C)C4(O)CC(=O)[C@]32CO[C@]12OC(C)(C)CC2O)CC1CC[C@@H]2C3=C[C@H]4O[C@@]5(O[C@@](C)(CO)C[C@@H]5O)C(C)[C@@]4(O)[C@]3(C)[C@@H](O)CC2[C@]1(C)C7 (some centres undefined)
inactive: dose: 10.0 micrograms/kg/injection, schedule: Q01DX005 (ip), vehicle: saline + alcohol 114 % of control and 117 % of control | dose: 20.0 micrograms/kg/injection, schedule: Q01DX005 (ip), vehicle: saline + alcohol 121 % of control

Cc1ccccc1N1C(=O)C(=O)C(c2nc3ccccc3s2)C(=O)C1=O
inactive: dose: 60.0 mg/kg/injection, schedule: Q01DX005 (ip), vehicle: saline with Tween-80 99 % of control | dose: 120.0 mg/kg/injection, schedule: Q01DX005 (ip), vehicle: saline with Tween-80 98 % of control | dose: 240.0 mg/kg/injection, schedule: Q01DX005 (ip), vehicle: saline with Tween-80 97 % of control

O=C(O)c1ccccc1Nc1ccccc1[N+](=O)[O-]
inactive: dose: 50.0 mg/kg/injection, schedule: Q04DX003 (ip), vehicle: saline 94 % of control | dose: 100.0 mg/kg/injection, schedule: Q04DX003 (ip), vehicle: saline 99 % of control | dose: 200.0 mg/kg/injection, schedule: Q04DX003 (ip), vehicle: saline 102 % of control | dose: 400.0 mg/kg/injection, schedule: Q04DX003 (ip), vehicle: saline 105 % of control

C[n+]1cc2ccccc2cc1CC(=S)[S-]
inactive: [7] 98 % of control | [8] 98 % of control | [9] 99 % of control | [10] 91 % of control

COc1cc(C2c3cc4c(cc3OC3(O)C=C(C)OC(=O)C23)OCO4)cc(OC)c1OC (centres undefined)
inactive: dose: 60.0 mg/kg/injection, schedule: Q01DX005 (ip), vehicle: Klucel (hydroxypropylcellulose) (HPC) 94 % of control | dose: 120.0 mg/kg/injection, schedule: Q01DX005 (ip), vehicle: Klucel (hydroxypropylcellulose) (HPC) 94 % of control | dose: 240.0 mg/kg/injection, schedule: Q01DX005 (ip), vehicle: Klucel (hydroxypropylcellulose) (HPC) 110 % of control
